# “Also recorded” adds a separate entry of the source.
# Experiments:
# [1] = system: SH-SY5Y cells; assay: Staurosporine (STS)-induced apoptotic cell death, Alamar blue; format: cell-based; settings: 0.5 μM STS
# Experimental: (§1) Graphs represent mean±s.e.m. ***P<0.0005, two-way ANOVA followed by Tukey's post hoc test (n=3). A PARP inhibitor, ABT-888 is used for the positive control. FIGS. 12B and 12C show in vitro oxidoreductase and tautomerase activity of MIF/PAAN with compound 41, 56, 76, or 77. FIGS. 12D and 12E show Alamar blue cell viability assay from SH-SY5Y cells pre-incubated with compound 41, 56, 76, or 77 in response to 0.5 μM staurosporine (STS) or from HT 22 cells incubated with 1 ng/ml of TNF-α with 50 μM z-VAD. A pan caspase inhibitor, z-VAD or necrostatin (Nec-1) is used for the positive control and PARP inhibitor, ABT-888 is used for negative control. Bars represent mean±s.e.m. ***P<0.0005, two-way ANOVA followed by Tukey's post hoc test (n=3). […] Bars represent mean±s.e.m. **P<0.005, ***P<0.0005, two-way ANOVA followed by Tukey's post hoc test (n=3).
# (§2) FIGS. 14A-14G show the characterization of compound 121. […] Bars represent means±s.e.m. ***P<0.0005, two-way ANOVA followed by Tukey's post hoc test (n=4). […] Bars represent mean±s.e.m. ***P<0.0005, two-way ANOVA followed by Tukey's post hoc test (n=4). […] Bars represent means±s.e.m. **P<0.005, ***P<0.0005, one-way ANOVA followed by Tukey's post hoc test (n=3). […] Bar represent mean±s.e.m. ***P<0.0005, one-way ANOVA followed by Tukey's post hoc test (n=3). […] Quantification of inhibition of PARP-1 activity by compound 56, compound 121 and ABT-888 is shown. Graphs represent mean±s.e.m. ***P<0.0005, two-way ANOVA followed by Tukey's post hoc test (n=3). FIGS. 14F and 14G show Alamar blue cell viability assay from SH-SY5Y cells pre-incubated with either compound 56 or 121 in response to (14F) 0.5 μM staurosporine (STS) or (14G) from HT 22 cells incubated with 1 ng/ml of TNF-α with 50 μM z-VAD. Bars represent mean±s.e.m. ***P<0.0005, two-way ANOVA followed by Tukey's post hoc test (n=5).
# (§3) Cell death and viability assessment. Primary cultured cortical neurons were treated with 5 μg/ml of α-syn PFF for 14 days and cell death was determined by staining of all nuclei with 7 μM Hoechst 33342 and dead cell nuclei with 2 μM propidium iodide (PI) (Invitrogen). The numbers of total and dead cells were counted with the Axiovision 4.6 software (Carl Zeiss). Cell viability was determined by fluorescence at an excitation wavelength 570 nm and an emission wavelength 585 nm using Alamar Blue (Invitrogen).
# [2] = system: PARP; assay: MNNG-induced PAR accumulation (PARP activation), western blot; format: cell-based; settings: FIG. 12A
# Experimental: Tissue lysate preparation and western blot analysis. Dissected brain regions of interest were homogenized and prepared in lysis buffer [50 mM Tris-HCl (pH 7.4), 150 mM NaCl, 1 mM EDTA, 1% Triton x-100, 0.5% SDS, 0.5% sodium-deoxycholate, phosphatase inhibitor mixture I and II (Sigma-Aldrich, St. Louis, Mo.), and complete protease inhibitor mixture (Roche, Indianapolis, Ind.)]. The samples were rotated at 4° C. for 30 min for the complete lysis and centrifugated at 15,000×g for 30 min. Protein concentrations were determined using the BCA assay (Pierce) and samples were separated using SDS polyacrylamide gels and transferred onto nitrocellulose membranes. The blots were blocked with 5% non-fat milk in TBS-T (Tris buffered saline with 0.1% Tween—20) for 1 h, probed using various primary antibodies. Target antigens were incubated with appropriate HRP-conjugated secondary antibodies (Cell signaling) and were visualized by ECL substrate.
# Cell culture, transfection, primary neuronal culture and treatment. SH-SY5Y cells (ATCC) were cultured in DMEM containing 10% fetal bovine serum and penicillin/streptomycin at 37° C. under 5% C02. The cells were transfected using PolyFect reagent (Qiagen). Parthanatos was induced by the treatment of 50 μM MNNG for 15 min in SH-SY5Y cells. ABT-888 or PAAN/MIF inhibitors were pretreated with indicated concentration 1 h before MNNG treatment and cell death were assessed after 24 h. Primary cortical neurons from WT, PAAN/MIF KO, E22Q KI or P1G KI embryos were prepared as previously described See Kam et al. (2018) Science 362:eaat8407. Briefly, the cortex was dissected and cultured at embryonic day 16 in neurobasal media supplemented with B-27, 0.5 mM L-glutamine, penicillin and streptomycin (Invitrogen). Primary neurons were infected with AAV2-control, AAV2-PAAN/MIF WT, AAV2-PAAN/MIF E22Q, AAV2-PAAN/MIF E22A or AAV2-MIF P1G (ViGene Biosciences) at days in vitro (DIV) 4-5. ABT-888 or PAAN/MIF inhibitors were applied to neurons 1 h before α-syn PFF treatment. The neuron growth medium was replaced with fresh medium alone or including inhibitors every 3-4 days. α-syn PFF was added at DIV 7 and further incubated for indicated times followed by the cell death assay or biochemical experiments.
# [3] = target: ExoIII (Escherichia coli, UniProt P09030); assay: In vitro nuclease assay of ExoIII (18 bp double-strand DNA substrate); format: biochemical
# Sequence of ExoIII (P09030 whole entry): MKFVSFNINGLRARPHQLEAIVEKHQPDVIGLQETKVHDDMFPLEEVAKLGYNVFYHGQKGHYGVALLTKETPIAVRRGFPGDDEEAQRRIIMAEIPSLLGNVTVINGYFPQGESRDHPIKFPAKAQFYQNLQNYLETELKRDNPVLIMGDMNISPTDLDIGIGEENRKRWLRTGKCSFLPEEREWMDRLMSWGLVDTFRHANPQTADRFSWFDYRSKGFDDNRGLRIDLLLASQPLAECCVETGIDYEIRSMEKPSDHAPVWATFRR
# Experimental: (§4) Nuclease assay. Purified PAAN/MIF protein (4 μM) was incubated with compounds (10 μM) in the nuclease buffer [10 mM Tris-C1 (pH 7.0) and 10 mM MgCl2] for 20 m on ice. Then samples were added with 1 μM of PAAN/MIF substrate (PS30 or RF) and incubated for 1 h at 37° C. The reaction was terminated with loading buffer containing 10 mM EDTA and separated on 15% TBE-urea polyacrylamide (PAGE) gel or 20% TBE PAGE gel. For other nucleases (EcoRI and EcoRV) assays, pcDNA3 (500 ng/reaction) was used as a substrate and 0.01 unit of Exonulcase III were incubated with small dsDNA (Sequence ID NO 4:5′-[…]-3′ and Sequence ID NO 5:5′-[…]-3′).
# [4] = system: HT 22 cells; assay: TNF-α and z-VAD-induced necroptosis, Alamar blue; format: cell-based; settings: 1 ng/ml TNF-α with 50 μM z-VAD
# Experimental: as §1, §2, §3
# [5] = target: EcoRV (Escherichia coli, UniProt P04390); assay: In vitro nuclease assay of EcoRV (pcDNA3 substrate); format: biochemical
# Sequence of EcoRV (P04390 whole entry): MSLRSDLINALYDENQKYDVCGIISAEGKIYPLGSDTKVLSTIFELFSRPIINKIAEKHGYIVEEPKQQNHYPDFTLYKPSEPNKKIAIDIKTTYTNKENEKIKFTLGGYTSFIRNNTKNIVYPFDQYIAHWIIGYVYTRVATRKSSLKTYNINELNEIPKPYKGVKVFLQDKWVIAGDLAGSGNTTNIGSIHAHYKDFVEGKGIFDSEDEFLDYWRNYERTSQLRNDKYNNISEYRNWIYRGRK
# Experimental: as §4
SMILES,staurosporine (STS)-induced apoptotic cell death [1],MNNG-induced PARP activation (PAR accumulation) [2],nuclease activity of ExoIII [3],TNFα and Z-VAD-induced necroptosis [4],nuclease activity of EcoRV [5]
COc1ccc(CC[C@H]2OC(=O)[C@@H]3CCCCN3C(=O)C(=O)C(C)(C)COC(=O)C=CCCN(C)C(=O)[C@@H]3CCCN3C(=O)[C@H](COC(C)(C)C)N(C)C(=O)C(c3ccccc3)NC(=O)CN(C)C(=O)COc3cccc2c3)cc1OC (stereo partly shown) [compound 41],do not inhibit,did not affect,do not inhibit,not prevented,do not inhibit
COc1ccc(CC[C@H]2OC(=O)[C@@H]3CCCCN3C(=O)C(=O)C(C)(C)COC(=O)C=CCCN(C)C(=O)[C@@H]3CCCN3C(=O)[C@H](COC(C)(C)C)N(C)C(=O)C(c3ccccc3)NC(=O)[C@H](C)N(C)C(=O)COc3cc(F)cc2c3)cc1OC (mixture of isomers) [compound 121],failed to inhibit,–,–,failed to inhibit,–
COc1ccc(CC[C@H]2OC(=O)[C@@H]3CCCCN3C(=O)C(=O)C(C)(C)COC(=O)C=CCCN(C)C(=O)[C@@H]3CCCN3C(=O)[C@H](COC(C)(C)C)N(C)C(=O)C(c3ccccc3)NC(=O)[C@H](C)N(C)C(=O)COc3cccc2c3)cc1OC (stereo partly shown) [compound 56],do not inhibit; also recorded: failed to inhibit,did not affect,do not inhibit,not prevented; also recorded: failed to inhibit,do not inhibit
COc1ccc(CC[C@H]2OC(=O)[C@@H]3CCCCN3C(=O)C(=O)C(C)(C)COC(=O)C=CCCN(C)C(=O)CNC(=O)[C@H](C(C)C)N(C)C(=O)[C@@H](Cc3ccccc3)NC(=O)[C@H](CC(C)C)N(C)C(=O)CCC(=O)Nc3cccc2c3)cc1OC [compound 76],do not inhibit,did not affect,do not inhibit,not prevented,do not inhibit
COc1ccc(CC[C@H]2OC(=O)[C@@H]3CCCCN3C(=O)C(=O)C(C)(C)COC(=O)C=CCCN(C)C(=O)[C@H](C)NC(=O)[C@H](C(C)C)N(C)C(=O)[C@@H](Cc3ccccc3)NC(=O)[C@H](CC(C)C)N(C)C(=O)CCC(=O)Nc3cccc2c3)cc1OC [compound 77],do not inhibit,did not affect,do not inhibit,not prevented,do not inhibit
